A short description of the data set: Photochromic properties of lens samples (2 mm, compound in the mass of cross-linked matrix I or II) exposed to UV radiation from a xenon lamp. In kind it is physicochemical. The conditions noted are these: lens sample. The text has this: The matrix used in accordance with the present invention may be one of two types:
A homopolymer of the monomer DIACRYL 121 (D121 : tetraethoxylated Bisphenol A dimethylmethacrylate), marketed by Akzo Nobel; or
A copolymer comprised of a 50/50 mixture by weight of D121 (as above) and polyethylene glycol dimethacrylate (Molecular weight = 400) (PEGDMA 400).
10^-5 moles of at least one compound of the invention, together with 0.2% by weight of AMBN (2,2'-azobis(2-methylbutyronitrile)) provided by Akzo, are added to 10 g of formulations able to generate cross-linked matrix I or II. The formulations thus prepared are then poured into a lens mould of 2 mm thickness and then cured by heating at 60°C for 6 hours, followed by heating at 80°C for 2 hours to give a lens sample. The photochromic properties of the lens samples thus obtained were then evaluated as follows : Said lens sample, containing said photochromic compounds in its mass, is exposed to a UV radiation (source: xenon lamp).

The mark [1] stands for this setting: Matrix I (homopolymer of DIACRYL 121).
Where [2] appears, read: Matrix II (50/50 D121 / PEGDMA 400 copolymer).

Molecules are shown by their SMILES.

In the case of `COc1ccc(C2(c3ccc(OC)cc3OC)C=Cc3c(c(C(=O)N4CCOCC4)cc4ccccc34)O2)cc1` (stereo not drawn) [Example 6, 3-(2,4-dimethoxyphenyl)-3-(4-methoxyphenyl)-5-morpholinocarbonyl-3H-naphtho[2,1-b]pyran], under setting [1], the “OID : optical induced density (D∞-D0)” value amounted to 1.931, the “T0 : the transmission before exposure to UV” value turned out to be 85.4%, the “TD15: the transmission after 15 minutes' exposure to UV” value (“TD15: the transmission” below) came out at 1.0% and the “λmax: the maximum absorption in the visible spectrum after UV irradiation” value (“λmax: the maximum absorption” below) amounted to 510 nm. For the same molecule, under setting [2], the “OID : optical induced density (D∞-D0)” value is 2.146, the “T0 : the transmission before exposure to UV” value worked out at 84.0% and the “TD15: the transmission” value came out at 0.6%.

As for `Cc1ccc(NC(=O)c2cc3ccccc3c3c2OC(c2ccccc2)(c2ccccc2)C=C3)cc1` [Example 1, 3,3-diphenyl-5-p-tolylcarbamoyl-3H-naphtho[2,1-b]pyran], under setting [1], the “OID : optical induced density (D∞-D0)” value worked out at 0.315, the “T0 : the transmission before exposure to UV” value was found to be 87.9%, the “TD15: the transmission” value is reported as 42.6% and the “λmax: the maximum absorption” value was determined as 477 nm.

Regarding `COc1ccc(C2(c3ccc(OC)cc3OC)C=Cc3c(c(C(=O)N4CCCCC4)cc4ccccc34)O2)c(OC)c1` [Example 9, 3,3-bis(2,4-dimethoxyphenyl)-5-piperidinocarbonyl-3H-naphtho[2,1-b]pyran], under setting [2], the “OID : optical induced density (D∞-D0)” value came to 0.765, the “T0 : the transmission before exposure to UV” value is reported as 89.0%, the “TD15: the transmission” value worked out at 15.3% and the “λmax: the maximum absorption” value stood at 504 nm.

In the case of `COc1ccc(C2(c3ccc(OC)c(OC)c3)C=Cc3c(c(C(=O)N4CCOCC4)cc4ccccc34)O2)c(OC)c1` (stereo not drawn) [Example 7, 3-(2,4-dimethoxyphenyl)-3-(3,4-dimethoxyphenyl)-5-morpholinocarbonyl-3H-naphtho[2,1-b]pyran], under setting [1], the “OID : optical induced density (D∞-D0)” value was found to be 0.746, the “T0 : the transmission before exposure to UV” value worked out at 88.0%, the “TD15: the transmission” value was determined as 15.8% and the “λmax: the maximum absorption” value is given as 512 nm. For the same molecule, under setting [2], the “OID : optical induced density (D∞-D0)” value is 0.805, the “T0 : the transmission before exposure to UV” value was found to be 88.1%, the “TD15: the transmission” value is recorded as 13.8% and the “λmax: the maximum absorption” value was 512 nm.

For the molecule `C1=CC(c2ccccc2)(c2ccccc2)Oc2ccc3ccccc3c21` [Control, 3,3-bisphenyl-3H-naphtho[2,1-b]pyran, reference compound], under setting [2], the “OID : optical induced density (D∞-D0)” value is recorded as 0.280, the “T0 : the transmission before exposure to UV” value came to 88%, the “TD15: the transmission” value is on record as 44% and the “λmax: the maximum absorption” value was 436 nm.

Take `CN(C)c1ccc(C2(c3ccc(N(C)C)c4ccccc34)C=Cc3c(c(C(=O)N4CCOCC4)cc4ccccc34)O2)cc1` (stereo not drawn) [Example 4, 3-(4-dimethylaminophenyl)-3-(4-dimethylaminonapthyl)-5-morpholinocarbonyl-3H-naphtho[2,1-b]pyran]: under setting [1], the “OID : optical induced density (D∞-D0)” value stood at 0.325, the “T0 : the transmission before exposure to UV” value came to 65.0%, the “TD15: the transmission” value was 30.8% and the “λmax: the maximum absorption” value was 556 nm.

Regarding `COc1ccc(C2(c3ccc(OC)cc3OC)C=Cc3c(c(C(=O)N4CCc5ccccc54)cc4ccccc34)O2)c(OC)c1` [Example 5, 3,3-bis(2,4-dimethoxyphenyl)-5-indolinocarbonyl--3H-naphtho[2,1-b]pyran], under setting [1], the “OID : optical induced density (D∞-D0)” value is 1.063, the “T0 : the transmission before exposure to UV” value turned out to be 85.6%, the “TD15: the transmission” value came out at 7.4% and the “λmax: the maximum absorption” value was found to be 514 nm. For the same molecule, under setting [2], the “OID : optical induced density (D∞-D0)” value was 1.634, the “T0 : the transmission before exposure to UV” value is reported as 84.0%, the “TD15: the transmission” value is listed as 2.0% and the “λmax: the maximum absorption” value turned out to be 514 nm.

`COc1ccc(C2(c3ccc(OC)cc3OC)C=Cc3c(c(C(=O)N4CCOCC4)cc4ccccc34)O2)c(OC)c1` [Example 2, 3,3-bis(2,4-dimethoxyphenyl)-5-morpholinocarbonyl-3H-naphtho[2,1-b]pyran]: under setting [1], the “OID : optical induced density (D∞-D0)” value was 1.303, the “T0 : the transmission before exposure to UV” value is 85.7%, the “TD15: the transmission” value worked out at 4.3% and the “λmax: the maximum absorption” value is 514 nm.

As to `COc1ccc(C2(c3ccc(N4CCCCC4)cc3)C=Cc3c(c(C(=O)N4CCCCC4)cc4ccccc34)O2)c(OC)c1` (stereo not drawn) [Example 8, 3-(2,4-dimethoxyphenyl)-3-(p-N-piperidinophenyl)-5-piperidinocarbonyl-3H-naphtho[2,1-b]pyran], under setting [1], the “OID : optical induced density (D∞-D0)” value is 0.637, the “T0 : the transmission before exposure to UV” value is listed as 85.4%, the “TD15: the transmission” value is recorded as 19.7% and the “λmax: the maximum absorption” value was 570 nm. Moreover, under setting [2], the “OID : optical induced density (D∞-D0)” value amounted to 0.769, the “T0 : the transmission before exposure to UV” value is reported as 85.8%, the “TD15: the transmission” value was found to be 14.6% and the “λmax: the maximum absorption” value was 570 nm.

For the origin of these results see EP1038870A1, “3,3-bis(aryl)-5-((N-(un)substituted)amido)naphthopyrans, their preparation, compositions and (co)polymer matrices containing them” (Corning S.A., priority 1999, dated 2000).
